Test results: US8029764B2, “Methods for detection of colorectal cancer” (The Johns Hopkins University, priority 2001, dated 2011)

Tested on: colorectal tissue transcripts
Assay: SAGE of normal, adenoma and cancer colorectal tissue (transcript tag counts)
Design: species or system human
Conditions: for AD1 (SAGE tag count): SAGE library AD1; for AD2 (SAGE tag count): SAGE library AD2; for CA1 (SAGE tag count): SAGE library CA1; for CA2 (SAGE tag count): SAGE library CA2; for NC1 (SAGE tag count): SAGE library NC1; for NC2 (SAGE tag count): SAGE library NC2
Summary of the method: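 SAGE libraries from two normal colonic epithelium samples, two colorectal adenomas (FAP patients, >70% neoplastic cells) and two colorectal cancers. Transcripts counted as 15-base 3′ tags from oligo(dT)-selected mRNA; repeated ditags, linkers and MHC-locus tags excluded before statistical library comparison.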

| Sequence | AD1 (SAGE tag count) | AD2 (SAGE tag count) | CA1 (SAGE tag count) | CA2 (SAGE tag count) | NC1 (SAGE tag count) | NC2 (SAGE tag count) |
| --- | --- | --- | --- | --- | --- | --- |
| GCAGCTCCTG (chemistry not fully specified) | 3 | 2 | 7 | 3 | 13 | 47 |
| GCAGGAGGTG (chemistry not fully specified; the letters are possibly those of the target site) | 0 | 0 | 0 | 1 | 2 | 13 |
| GCAGGGCCTC (chemistry not fully specified) | 41 | 69 | 39 | 51 | 128 | 165 |
| GCCACATACT (chemistry not fully specified) | 0 | 0 | 0 | 0 | 3 | 9 |
| GCCACGTGGA (chemistry not fully specified) | 5 | 2 | 7 | 1 | 19 | 16 |
| GCCAGACACC (chemistry not fully specified) | 3 | 4 | 1 | 2 | 19 | 9 |
| GCCAGGTTGC (chemistry not fully specified) | 1 | 1 | 1 | 1 | 14 | 5 |
| GCCATCCTCC (chemistry not fully specified) | 0 | 1 | 0 | 0 | 9 | 13 |
| GCCCACACAG (chemistry not fully specified) | 1 | 1 | 0 | 0 | 15 | 0 |
| GCCCACGTCA (chemistry not fully specified) | 0 | 0 | 0 | 0 | 7 | 8 |
| GCCCAGGGCC (chemistry not fully specified; the letters are possibly those of the target site) | 2 | 1 | 2 | 1 | 4 | 44 |
| GCCCAGGTCA (chemistry not fully specified) | 136 | 128 | 58 | 22 | 519 | 447 |
| GCCCAGTGGC (chemistry not fully specified) | 8 | 15 | 2 | 5 | 51 | 0 |
| GCCGACCAGG (chemistry not fully specified) | 15 | 8 | 19 | 9 | 46 | 47 |
| GCCGGGTGGG (chemistry not fully specified) | 18 | 24 | 68 | 67 | 207 | 149 |
| GCCGTGGAGA (chemistry not fully specified) | 4 | 11 | 7 | 7 | 32 | 23 |
| GCCTGGCCAT (chemistry not fully specified) | 4 | 6 | 10 | 14 | 26 | 34 |
| GCGAAACCCT (chemistry not fully specified) | 123 | 43 | 64 | 98 | 167 | 565 |
| GCGAAACTCG (chemistry not fully specified) | 1 | 0 | 0 | 0 | 5 | 9 |
| GCGCAGAGGT (chemistry not fully specified) | 1 | 0 | 0 | 1 | 2 | 16 |
| GCTCTTCCCC (chemistry not fully specified; the letters are possibly those of the target site) | 1 | 2 | 2 | 0 | 9 | 21 |
| GCTGCCCTTG (chemistry not fully specified) | 13 | 6 | 6 | 18 | 44 | 6 |
| GCTGGCACAT (chemistry not fully specified) | 1 | 0 | 6 | 0 | 15 | 14 |
| GCTGGCCCCG (chemistry not fully specified) | 0 | 0 | 0 | 1 | 5 | 11 |
| GCTGTGCCTG (chemistry not fully specified) | 2 | 4 | 11 | 8 | 36 | 42 |
| GCTTGGGGAT (chemistry not fully specified) | 2 | 0 | 0 | 0 | 11 | 8 |
| GGAACAGGGG (chemistry not fully specified) | 1 | 0 | 0 | 2 | 1 | 13 |
| GGAACTGTGA (chemistry not fully specified) | 10 | 18 | 10 | 2 | 90 | 84 |
| GGAAGAGCAC (chemistry not fully specified) | 1 | 1 | 2 | 5 | 21 | 11 |
